# How the values were obtained:
# [1] = AUCinfinity in Sprague-Dawley rat at 3 mg/kg, po administered via gavage by LC-MS/MS analysis; format: ADME, organism-based; design: dose 3 mg/kg, time infinity, route oral; conditions: in vivo
# [2] = Volume of distribution at steady state in Sprague-Dawley rat at 1 mg/kg, iv by LC-MS/MS analysis; format: ADME, organism-based; conditions: in vivo, read-out: Vdss
# [3] = AUClast in Sprague-Dawley rat at 3 mg/kg, po administered via gavage by LC-MS/MS analysis; format: ADME, organism-based; design: dose 3 mg/kg, time 0 - last, route oral; conditions: in vivo
# [4] = Clearance in Sprague-Dawley rat at 1 mg/kg, iv by LC-MS/MS analysis; format: ADME, organism-based; conditions: in vivo
# [5] = AUClast in Sprague-Dawley rat at 1 mg/kg, iv by LC-MS/MS analysis; format: ADME, organism-based; design: dose 1 mg/kg, time 0 - last, route intravenous; conditions: in vivo
# RT-112 = experiment: Antiproliferative activity against human RT112 cells expressing FGFR3 after 72 hrs; format: functional, cell-based; conditions: RT-112, 72 h
# BaF3 = experiment: Antiproliferative activity against mouse BAF3 cells expressing VEGFR2 after 72 hrs; format: functional, cell-based; conditions: BaF3, 72 h
# [6] = molecular target: Vascular endothelial growth factor receptor 2 (Homo sapiens, UniProt P35968); experiment: Inhibition of recombinant VEGFR2 (unknown origin) using poly (Glu, Tyr) 4:1 as substrate after 60 mins by ELISA based spectrophotometric method
# Vascular endothelial growth factor receptor 2, sequence (P35968 whole entry): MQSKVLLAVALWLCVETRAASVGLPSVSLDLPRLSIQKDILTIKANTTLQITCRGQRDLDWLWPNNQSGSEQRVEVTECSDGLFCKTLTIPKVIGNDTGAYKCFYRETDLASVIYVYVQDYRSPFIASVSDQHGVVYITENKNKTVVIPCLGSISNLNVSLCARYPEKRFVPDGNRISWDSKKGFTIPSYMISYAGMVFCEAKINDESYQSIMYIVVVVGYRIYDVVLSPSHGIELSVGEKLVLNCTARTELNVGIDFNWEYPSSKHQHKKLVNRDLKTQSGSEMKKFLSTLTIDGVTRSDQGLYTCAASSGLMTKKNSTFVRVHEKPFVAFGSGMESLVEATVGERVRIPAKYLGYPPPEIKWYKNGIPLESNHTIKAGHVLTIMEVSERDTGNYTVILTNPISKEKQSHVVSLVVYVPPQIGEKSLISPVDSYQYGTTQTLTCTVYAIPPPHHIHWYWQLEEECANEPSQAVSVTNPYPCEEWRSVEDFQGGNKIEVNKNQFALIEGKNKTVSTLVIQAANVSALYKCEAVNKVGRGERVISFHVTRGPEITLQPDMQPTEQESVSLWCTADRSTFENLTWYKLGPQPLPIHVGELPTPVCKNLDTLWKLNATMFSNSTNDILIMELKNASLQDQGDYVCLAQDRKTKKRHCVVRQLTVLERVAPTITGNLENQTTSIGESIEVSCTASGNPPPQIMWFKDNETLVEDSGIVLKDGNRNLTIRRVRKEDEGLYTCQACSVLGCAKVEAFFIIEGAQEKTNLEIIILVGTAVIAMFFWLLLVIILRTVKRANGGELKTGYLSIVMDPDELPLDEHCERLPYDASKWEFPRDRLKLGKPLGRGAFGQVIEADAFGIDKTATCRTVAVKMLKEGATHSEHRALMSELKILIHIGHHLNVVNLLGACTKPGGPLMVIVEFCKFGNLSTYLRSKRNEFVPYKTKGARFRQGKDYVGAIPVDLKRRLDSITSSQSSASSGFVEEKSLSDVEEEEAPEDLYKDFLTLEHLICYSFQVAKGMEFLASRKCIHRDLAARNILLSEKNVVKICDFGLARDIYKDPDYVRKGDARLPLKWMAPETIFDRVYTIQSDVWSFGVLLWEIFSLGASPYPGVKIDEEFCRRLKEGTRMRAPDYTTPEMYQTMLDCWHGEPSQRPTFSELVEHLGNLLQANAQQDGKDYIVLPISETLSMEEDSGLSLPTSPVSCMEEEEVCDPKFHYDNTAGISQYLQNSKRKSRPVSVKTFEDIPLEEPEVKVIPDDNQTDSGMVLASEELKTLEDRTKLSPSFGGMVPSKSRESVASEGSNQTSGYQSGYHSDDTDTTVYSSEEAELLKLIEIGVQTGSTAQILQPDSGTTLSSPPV
# [7] = Half life in Sprague-Dawley rat at 1 mg/kg, iv by LC-MS/MS analysis; format: ADME, organism-based; conditions: in vivo
# SNU-16 [8] = experiment: Antiproliferative activity against human SNU16 cells expressing FGFR2 after 72 hrs; format: functional, cell-based; conditions: SNU-16, 72 h
# [9] = molecular target: T1, Fibroblast growth factor receptor 3 (Homo sapiens, UniProt P22607); experiment: Inhibition of recombinant FGFR3 (unknown origin) using poly (Glu, Tyr) 4:1 as substrate after 60 mins by ELISA based spectrophotometric method
# T1 sequence (P22607 whole entry): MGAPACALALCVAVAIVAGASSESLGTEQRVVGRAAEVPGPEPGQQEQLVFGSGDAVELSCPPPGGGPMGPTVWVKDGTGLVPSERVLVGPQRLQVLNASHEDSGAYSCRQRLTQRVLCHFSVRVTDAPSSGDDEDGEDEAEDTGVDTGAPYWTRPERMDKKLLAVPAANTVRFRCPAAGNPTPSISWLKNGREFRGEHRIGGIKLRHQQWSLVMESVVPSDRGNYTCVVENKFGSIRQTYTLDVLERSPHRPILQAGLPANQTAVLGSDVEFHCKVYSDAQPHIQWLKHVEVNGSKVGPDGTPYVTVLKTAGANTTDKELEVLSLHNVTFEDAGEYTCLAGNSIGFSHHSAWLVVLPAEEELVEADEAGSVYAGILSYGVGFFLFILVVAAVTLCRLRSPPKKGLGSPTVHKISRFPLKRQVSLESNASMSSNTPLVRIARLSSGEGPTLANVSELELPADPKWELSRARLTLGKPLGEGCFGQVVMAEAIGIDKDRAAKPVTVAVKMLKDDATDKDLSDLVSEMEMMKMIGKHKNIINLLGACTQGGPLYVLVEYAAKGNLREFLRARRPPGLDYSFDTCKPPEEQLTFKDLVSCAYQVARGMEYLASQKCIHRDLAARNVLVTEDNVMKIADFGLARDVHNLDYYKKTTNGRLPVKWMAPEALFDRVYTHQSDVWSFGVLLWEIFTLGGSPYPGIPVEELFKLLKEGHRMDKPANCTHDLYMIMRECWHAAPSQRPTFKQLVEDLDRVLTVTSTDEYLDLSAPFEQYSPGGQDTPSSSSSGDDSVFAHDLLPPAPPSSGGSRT
# [10] = molecular target: Fibroblast growth factor receptor 2 (Homo sapiens, UniProt P21802); experiment: Inhibition of recombinant FGFR2 (unknown origin) using poly (Glu, Tyr) 4:1 as substrate after 60 mins by ELISA based spectrophotometric method
# Fibroblast growth factor receptor 2, sequence (P21802 whole entry): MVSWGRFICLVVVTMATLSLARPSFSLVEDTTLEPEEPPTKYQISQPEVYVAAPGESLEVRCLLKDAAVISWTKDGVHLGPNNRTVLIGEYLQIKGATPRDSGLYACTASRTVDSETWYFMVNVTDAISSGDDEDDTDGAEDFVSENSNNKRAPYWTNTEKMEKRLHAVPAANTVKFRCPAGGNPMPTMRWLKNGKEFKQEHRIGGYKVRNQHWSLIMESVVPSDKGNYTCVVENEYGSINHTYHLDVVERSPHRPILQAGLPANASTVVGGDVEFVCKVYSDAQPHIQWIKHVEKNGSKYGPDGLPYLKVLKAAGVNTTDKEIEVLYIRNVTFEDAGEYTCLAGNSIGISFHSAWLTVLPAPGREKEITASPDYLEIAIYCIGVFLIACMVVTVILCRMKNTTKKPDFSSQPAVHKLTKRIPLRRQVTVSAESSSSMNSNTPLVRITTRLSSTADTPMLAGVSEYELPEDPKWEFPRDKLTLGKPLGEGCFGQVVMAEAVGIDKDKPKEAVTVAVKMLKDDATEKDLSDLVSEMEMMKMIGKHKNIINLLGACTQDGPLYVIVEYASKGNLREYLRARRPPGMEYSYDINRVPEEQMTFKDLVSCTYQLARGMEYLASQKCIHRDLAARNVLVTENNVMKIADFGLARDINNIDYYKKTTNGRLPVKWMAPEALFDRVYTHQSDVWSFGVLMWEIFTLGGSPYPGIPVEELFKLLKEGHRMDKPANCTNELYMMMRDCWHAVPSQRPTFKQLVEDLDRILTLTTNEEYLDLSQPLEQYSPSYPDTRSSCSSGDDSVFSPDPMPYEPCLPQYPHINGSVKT
# NCI-H1581 = experiment: Antiproliferative activity against human NCI-H1581 cells expressing FGFR1 after 72 hrs; format: functional, cell-based; conditions: NCI-H1581, 72 h
# [11] = Oral bioavailability in Sprague-Dawley rat at 3 mg/kg administered via gavage by LC-MS/MS analysis; format: ADME, organism-based; conditions: in vivo
# KG-1 = experiment: Antiproliferative activity against human KG1 cells expressing FGFR1 after 72 hrs; format: functional, cell-based; conditions: KG-1, 72 h
# [12] = AUCinfinity in Sprague-Dawley rat at 1 mg/kg, iv by LC-MS/MS analysis; format: ADME, organism-based; design: dose 1 mg/kg, route intravenous, time infinity; conditions: in vivo
# [13] = Half life in Sprague-Dawley rat at 3 mg/kg, po administered via gavage by LC-MS/MS analysis; format: ADME, organism-based; conditions: in vivo
# [14] = Antiproliferative activity against human UM-UC-14 cells expressing FGFR3 after 72 hrs; format: functional, cell-based; conditions: UMUC14, 72 h
# [15] = molecular target: Fibroblast growth factor receptor 1 (Homo sapiens, UniProt P11362); experiment: Inhibition of recombinant FGFR1 (unknown origin) using poly (Glu, Tyr) 4:1 as substrate after 60 mins by ELISA based spectrophotometric method
# Fibroblast growth factor receptor 1, sequence (P11362 whole entry): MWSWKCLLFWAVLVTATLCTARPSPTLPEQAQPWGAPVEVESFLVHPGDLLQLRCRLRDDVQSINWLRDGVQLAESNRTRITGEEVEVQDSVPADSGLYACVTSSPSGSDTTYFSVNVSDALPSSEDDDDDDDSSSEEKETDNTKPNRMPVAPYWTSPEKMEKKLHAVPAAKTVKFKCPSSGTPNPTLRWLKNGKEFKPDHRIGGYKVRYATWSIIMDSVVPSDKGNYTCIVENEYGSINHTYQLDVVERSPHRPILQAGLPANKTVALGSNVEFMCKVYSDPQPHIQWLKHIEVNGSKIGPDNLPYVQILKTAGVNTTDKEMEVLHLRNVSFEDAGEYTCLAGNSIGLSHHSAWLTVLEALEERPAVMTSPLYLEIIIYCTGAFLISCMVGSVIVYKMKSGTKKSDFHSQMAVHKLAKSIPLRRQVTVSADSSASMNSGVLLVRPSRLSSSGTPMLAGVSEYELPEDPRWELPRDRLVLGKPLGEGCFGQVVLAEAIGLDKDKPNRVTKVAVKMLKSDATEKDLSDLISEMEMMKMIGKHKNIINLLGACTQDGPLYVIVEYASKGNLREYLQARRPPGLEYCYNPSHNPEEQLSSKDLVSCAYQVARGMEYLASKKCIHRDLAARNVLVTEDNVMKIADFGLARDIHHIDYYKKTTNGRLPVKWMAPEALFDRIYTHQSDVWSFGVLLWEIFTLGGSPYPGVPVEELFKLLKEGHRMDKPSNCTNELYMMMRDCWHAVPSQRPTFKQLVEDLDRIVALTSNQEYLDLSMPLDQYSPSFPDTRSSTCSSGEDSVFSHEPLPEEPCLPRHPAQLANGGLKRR
# SNU-16 [16] = experiment: Antitumor activity against human SNU16 cells xenografted in nude mouse assessed as tumor growth inhibition at 10 mg/kg, ip qd administered for 21 consecutive days and measured twice per week relative to control; format: functional; conditions: SNU-16, ip, read-out: TGI
# Mus musculus = experiment: Toxicity in nude mouse xenografted with human SNU16 cells assessed as body weight loss at 10 to 50 mg/kg, ip qd administered for 21 consecutive days and measured twice per week; format: organism-based; conditions: in vivo
# SNU-16 [17] = experiment: Antitumor activity against human SNU16 cells xenografted in nude mouse assessed as tumor growth inhibition at 50 mg/kg, ip qd administered for 21 consecutive days and measured twice per week relative to control; format: functional; conditions: SNU-16, ip, read-out: TGI
# [18] = Aqueous solubility of the compound; format: physicochemical; conditions: buffer
# [19] = molecular target: T1, Fibroblast growth factor receptor 3; experiment: Inhibition of FGFR3 (unknown origin)
# SNU-16 [20] = conditions: Homo sapiens
# Description: Antitumor activity against human SNU16 cells xenografted in nude mouse assessed as tumor growth inhibition administered ip qd for 21 consecutive days and measured twice per week
Structure (SMILES),IC50 (KG-1),IC50 [15],also measured
CNC(=O)c1cccc2cc(Oc3ccnc(NC(=O)c4ccc(N5CCN(C)CC5)cc4)c3)ccc12 [listing 1 of 2 here],< 0.5 nM,–,AUC(0-inf) [1]: 22.7 ng·h/mL; Vd [2]: 16.7 L/kg; AUC(0-t) [3]: 21.4 ng·h/mL; clearance [4]: 346 mL/min/kg; AUC(0-t) [5]: 47.9 ng·h/mL; IC50 (RT-112): 52.6 nM; IC50 (BaF3): < 1.5 nM; IC50 [6]: 2.9 nM; half-life [7]: 0.897 h; IC50 (SNU-16 [8]): < 0.5 nM; IC50 [9]: 10.6 nM; IC50 [10]: 4.5 nM; IC50 (NCI-H1581): 22.3 nM; bioavailability [11]: 14.9%; AUC(0-inf) [12]: 49 ng·h/mL; half-life [13]: 1.85 h; IC50 [14]: 1.7 nM
C=CC(=O)Nc1ccc(C(=O)Nc2cc(Oc3ccc4c(C(=O)NC)cccc4c3)ccn2)cc1,369 nM,12.8 nM,–
CNC(=O)c1cccc2cc(Oc3ccnc(NC(=O)c4ccc(OCCN5CC(F)(F)C5)cc4)c3)ccc12,< 4.1 nM,6.1 nM,–
CNC(=O)c1cccc2cc(Oc3ccnc(NC(=O)c4ccc(N5CCN(C)CC5)cc4)c3)ccc12.Cl.Cl,–,–,inhibition in vivo at 10 mg/kg (SNU-16 [16]): 25%; Activity (Mus musculus): Non-Toxic; inhibition in vivo at 50 mg/kg (SNU-16 [17]): 81%; solubility [18]: Soluble
CNC(=O)c1cccc2cc(Oc3ccnc(NC(=O)c4ccc(N5CCN(CCO)CC5)cc4)c3)ccc12,5.8 nM,1.9 nM,–
COC(=O)c1cccc2cc(Oc3ccnc(NC(=O)c4ccc(N5C[C@@H](C)N[C@@H](C)C5)cc4)c3)ccc12,159 nM,4.6 nM,–
CNC(=O)c1cccc2cc(Oc3ccnc(NC(=O)c4ccc(N5CC(C)OC(C)C5)cc4)c3)ccc12 (centres undefined),154 nM,1.9 nM,–
CNC(=O)c1cccc2cc(Oc3ccnc(NC(=O)c4ccc(OCC5(N)CC5)cc4)c3)ccc12,54.5 nM,7.4 nM,–
CNC(=O)c1cccc2cc(Oc3ccnc(NC(=O)c4ccc(C5CCNCC5)cc4)c3)ccc12,72.2 nM,1.6 nM,–
CNC(=O)c1cccc2cc(Oc3ccnc(NC(=O)c4ccc(N5C[C@@H](C)N[C@@H](C)C5)cc4C)c3)ccc12,> 1000 nM,12.9 nM,–
CNC(=O)c1cccc2cc(Oc3ccnc(NC(=O)c4cnc(N5C[C@@H](C)N[C@@H](C)C5)nc4)c3)ccc12,30.3 nM,10.2 nM,–
CNC(=O)c1cccc2cc(Oc3ccnc(NC(=O)c4cnn(CCO)c4)c3)ccc12,278 nM,23.5 nM,–
CNC(=O)c1cccc2cc(Oc3ccnc(NC(=O)c4ccc(N5C[C@@H](C)N[C@@H](C)C5)cc4F)c3)ccc12,–,> 1000 nM,–
CNC(=O)c1cccc2cc(Oc3ccnc(NC(=O)c4ccc(N5CCNC(C)C5)cc4)c3)ccc12 (centres undefined),< 4.1 nM,2 nM,–
CC(Oc1ccc(NC(=O)c2ccc(N3C[C@@H](C)N[C@@H](C)C3)cc2)nc1)c1c(Cl)cncc1Cl (some centres undefined),–,> 1000 nM,–
CNC(=O)c1cccc2cc(Oc3ccnc(NC(=O)c4ccc(OCCN5CCCC5)cc4)c3)ccc12,< 4.1 nM,4.1 nM,–
CNC(=O)c1cccc2cc(Oc3ccnc(NC(=O)c4ccc(OCCN5CC(F)C5)cc4)c3)ccc12,5.1 nM,3.6 nM,–

Structure (SMILES),IC50 (KG-1),IC50 [15],also measured
CCNC(=O)Nc1ccc(Oc2ccnc(NC(=O)c3ccc(N4C[C@@H](C)N[C@@H](C)C4)cc3)c2)c(OC)c1,548 nM,36.1 nM,–
CCNC(=O)Nc1cccc2cc(Oc3ccnc(NC(=O)c4ccc(N5C[C@@H](C)N[C@@H](C)C5)cc4)c3)ccc12,504 nM,67.5 nM,–
CNC(=O)c1cccc2cc(Oc3ccnc4cc(OCC5(N)CC5)c(OC)cc34)ccc12 [LUCITANIB],–,–,IC50 [19]: 238 nM
COc1cc(OC)c(Cl)c(CCOc2ccnc(NC(=O)c3ccc(N4C[C@@H](C)N[C@@H](C)C4)cc3)c2)c1Cl,–,> 1000 nM,–
CNC(=O)c1cccc2cc(Oc3ccnc(NC(=O)c4coc(N5CCN(C)CC5)n4)c3)ccc12,–,2.8 nM,–
COc1cc(OC)c(F)c(COc2ccc(NC(=O)c3ccc(N4C[C@@H](C)N[C@@H](C)C4)cc3)nc2)c1F,116 nM,22.2 nM,–
CNC(=O)c1cccc2cc(Oc3ccnc(NC(=O)c4csc(N5CCN(C)CC5)n4)c3)ccc12,–,7.6 nM,–
CNC(=O)c1cccc2cc(Oc3ccnc(NC(=O)c4ccc(N5C[C@@H](C)N[C@@H](C)C5)cc4OC)c3)ccc12,–,285 nM,–
COc1cc(CCOc2ccnc(NC(=O)c3ccc(N4C[C@@H](C)N[C@@H](C)C4)cc3)c2)cc(OC)c1,–,> 1000 nM,–
CCNC(=O)N1CCCc2cc(Oc3ccnc(NC(=O)c4ccc(N5C[C@@H](C)N[C@@H](C)C5)cc4)c3)ccc21,118 nM,132 nM,–
CNC(=O)c1cccc2cc(Oc3ccnc(NC(=O)c4ccc(C5CCN(CCO)CC5)cc4)c3)ccc12,< 4.1 nM,1.2 nM,–
CNC(=O)c1cccc2cc(Oc3ccnc(NC(=O)c4ccc(N5C[C@@H](C)N[C@@H](C)C5)cc4)c3)ccc12,14.9 nM,2.1 nM,–
CNC(=O)c1cccc2cc(Oc3ccnc(NC(=O)c4ccc(N5CCN(C)CC5)cc4)c3)ccc12 [listing 2 of 2 here],–,–,TGI (SNU-16 [20]): Dose-dependent effect
COc1cc(CCc2cc(NC(=O)c3ccc(N4C[C@@H](C)N[C@@H](C)C4)cc3)n[nH]2)cc(OC)c1 [FEXAGRATINIB],1.9 to 8.7 nM,–,IC50 (RT-112): 83.8 nM; IC50 (BaF3): 222 nM; IC50 (SNU-16 [8]): 6.2 nM; IC50 (NCI-H1581): 40 nM; IC50 [14]: 26.9 nM
CNC(=O)c1cccc2cc(Oc3ccnc(NC(=O)c4ccc(NCC5(O)CCOCC5)cc4)c3)ccc12,< 4.1 nM,6.2 nM,–
CNC(=O)c1cccc2cc(Oc3ccnc(NC(=O)c4ccc(N5CCOCC5)cc4)c3)ccc12,9.3 nM,1.2 nM,–
